{"source": "PubChem BioAssay AID1259411", "about": "(Chemical Carcinogenesis Research Information System (CCRIS), 2018)", "tested_on": "rodent carcinogenicity bioassays, tumor incidence", "assay": "CCRIS carcinogenicity studies", "conditions": "Species: MOUSE", "procedure,_shortened": "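Archive of carcinogenicity, mutagenicity, tumor promotion and tumor inhibition results drawn from journals, NCI reports and other sources, expert-reviewed; covers 1985-2011 and is no longer updated.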", "note": "The source made the active and inactive calls. The rule behind the calls is not given here."}
{"smiles": "c1ccc2c(c1)cc1ccc3cccc4ccc2c1c34", "values": [{"measurement": "carcinogen call", "setting": "Strain/Sex: C3H/MALE, Route: DERMAL, Dose: 0.15-470 UG, 3/WK FOR LIFE, Tumor Site: Type of Lesion: INTEGUMENTARY SYSTEM (SKIN)", "result": "active; positive"}, {"measurement": "carcinogen call", "setting": "Strain/Sex: C3H/MALE, Route: SUBCUTANEOUS, Dose: 0.00195-8.0 MG, SINGLE DOSE, Tumor Site: Type of Lesion: INJECTION SITE: SARCOMA", "result": "active; positive"}, {"measurement": "carcinogen call", "setting": "Strain/Sex: C3H, Route: DERMAL, Dose: 0.00002-0.02%, 3/WK FOR UP TO 80 WK, Tumor Site: Type of Lesion: INTEGUMENTARY SYSTEM (SKIN)", "result": "active; positive"}, {"measurement": "carcinogen call", "setting": "Strain/Sex: C57BL/FEMALE, Route: INTRATRACHEAL, Dose: 0, 1 MG ON CHARCOAL POWDER INSTILLED 8 TIMES (STUDY DURATION: 13 WK), Tumor Site: Type of Lesion: LUNG: SQUAMOUS CELL CARCINOMA OR ADENOCARCINOMA", "result": "active; positive"}, {"measurement": "carcinogen call", "setting": "Strain/Sex: C57BL/FEMALE, Route: SUBCUTANEOUS, Dose: 0, 0.5, 1 MG IN 1% AQUEOUS GELATIN INJECTED IN THE SCAPULAR REGION OF NEWBORN MICE ONCE (STUDY DURATION: 9 WK), Dose: 0, 0.5, 1 MG IN 1% AQUEOUS GELATIN INJECTED IN THE SCAPULAR REGION OF NEWBORN MICE ONCE (STUDY DURATION: 9 WK)", "result": "inactive; negative"}, {"measurement": "carcinogen call", "setting": "Strain/Sex: C57BL/MALE, Route: SUBCUTANEOUS, Dose: 0, 0.5, 1 MG IN 1% AQUEOUS GELATIN INJECTED IN THE SCAPULAR REGION OF NEWBORN MICE ONCE (STUDY DURATION: 9 WK), Dose: 0, 0.5, 1 MG IN 1% AQUEOUS GELATIN INJECTED IN THE SCAPULAR REGION OF NEWBORN MICE ONCE (STUDY DURATION: 9 WK)", "result": "inactive; negative"}, {"measurement": "carcinogen call", "setting": "Strain/Sex: C57BL, Route: DERMAL, Dose: 0.0001-0.5%, 3/WK, Tumor Site: Type of Lesion: INTEGUMENTARY SYSTEM (SKIN)", "result": "active; positive"}, {"measurement": "carcinogen call", "setting": "Strain/Sex: C57BL, Route: SUBCUTANEOUS, Dose: 0.00004, 0.0004, 0.004, 0.04 MG, SINGLE DOSE, Tumor Site: Type of Lesion: INJECTION SITE: SARCOMA", "result": "active; positive"}, {"measurement": "carcinogen call", "setting": "Strain/Sex: C57BR/CDJ/FEMALE, Route: SUBCUTANEOUS, Dose: 0, 0.5, 1 MG IN 1% AQUEOUS GELATIN INJECTED IN THE SCAPULAR REGION OF NEWBORN MICE ONCE (STUDY DURATION: 9 WK), Dose: 0, 0.5, 1 MG IN 1% AQUEOUS GELATIN INJECTED IN THE SCAPULAR REGION OF NEWBORN MICE ONCE (STUDY DURATION: 9 WK)", "result": "inactive; negative"}, {"measurement": "carcinogen call", "setting": "Strain/Sex: C57BR/CDJ/MALE, Route: SUBCUTANEOUS, Dose: 0, 0.5, 1 MG IN 1% AQUEOUS GELATIN INJECTED IN THE SCAPULAR REGION OF NEWBORN MICE ONCE (STUDY DURATION: 9 WK), Dose: 0, 0.5, 1 MG IN 1% AQUEOUS GELATIN INJECTED IN THE SCAPULAR REGION OF NEWBORN MICE ONCE (STUDY DURATION: 9 WK)", "result": "inactive; negative"}, {"measurement": "carcinogen call", "setting": "Strain/Sex: CAF1, Route: DERMAL, Dose: 0.0005, 0.001, 0.5%, 3/WK, Tumor Site: Type of Lesion: INTEGUMENTARY SYSTEM (SKIN): PAPILLOMA", "result": "active; positive"}, {"measurement": "carcinogen call", "setting": "Strain/Sex: CFW/MALE, FEMALE, Route: ORAL, Dose: 30-250 PPM IN DIET FOR 70-197 D, Tumor Site: Type of Lesion: STOMACH", "result": "active; positive"}, {"measurement": "carcinogen call", "setting": "Strain/Sex: CFW/MALE, FEMALE, Route: ORAL, Dose: 250 PPM IN DIET FOR 1-30 D, OBSERVED UNTIL 103-107 D, Tumor Site: Type of Lesion: FORESTOMACH", "result": "active; positive"}, {"measurement": "carcinogen call", "setting": "Strain/Sex: CFW, Route: SUBCUTANEOUS, Dose: 0.001-2 MG, SINGLE DOSE, Tumor Site: Type of Lesion: INJECTION SITE: FIBROSARCOMA", "result": "active; positive"}, {"measurement": "carcinogen call", "setting": "Strain/Sex: DBA/2/FEMALE, Route: INTRATRACHEAL, Dose: 0, 1 MG ON CHARCOAL POWDER INSTILLED 8 TIMES (STUDY DURATION: 13 WK)", "result": "inactive; negative"}, {"measurement": "carcinogen call", "setting": "Strain/Sex: EU-PIM-1/MALE, Route: GAVAGE, Dose: 0, 4.3, 13, 39 MG/KG BW IN 0.1 ML SOY OIL 3/WK FOR 13 WK (STUDY DURATION: 291 D), Dose: 0, 4.3, 13, 39 MG/KG BW IN 0.1 ML SOY OIL 3/WK FOR 13 WK (STUDY DURATION: 291 D), Tumor Site: Type of Lesion: LYMPHATIC SYSTEM: LYMPHOMA, FORESTOMACH: TUMOR", "result": "active; positive"}, {"measurement": "carcinogen call", "setting": "Strain/Sex: ICR/FEMALE, Route: INTRAPERITONEAL, Dose: 0, 59.5 UG TOTAL DOSE (8.5 UG/5 µL, 17 UG/10 µL, 34 UG/20 µL DMSO ON DAYS 1, 8 AND 15) ADMINISTERED TO NEWBORN ANIMALS (, Tumor Site: Type of Lesion: LUNG: ADENOMA", "result": "active; positive"}, {"measurement": "carcinogen call", "setting": "Strain/Sex: ICR/MALE, Route: INTRAPERITONEAL, Dose: 0, 59.5 UG TOTAL DOSE (8.5 UG/5 µL, 17 UG/10 µL, 34 UG/20 µL DMSO ON DAYS 1, 8 AND 15) ADMINISTERED TO NEWBORN ANIMALS (, Tumor Site: Type of Lesion: LUNG: ADENOMA", "result": "active; positive"}, {"measurement": "carcinogen call", "setting": "Strain/Sex: N:GP(S)/FEMALE, Route: INTRATRACHEAL, Dose: 0, 1 MG ON CHARCOAL POWDER INSTILLED 8 TIMES (STUDY DURATION: 13 WK)", "result": "inactive; negative"}, {"measurement": "carcinogen call", "setting": "Strain/Sex: N:GP(S)/FEMALE, Route: SUBCUTANEOUS, Dose: 0, 40, 62.5, 125, 250, 500, 1000 UG FOR 9 WK (STUDY DURATION: 9 WK), Dose: 0, 40, 62.5, 125, 250, 500, 1000 UG FOR 9 WK (STUDY DURATION: 9 WK), Tumor Site: Type of Lesion: LUNG: ADENOMA", "result": "active; positive"}, {"measurement": "carcinogen call", "setting": "Strain/Sex: N:GP(S)/MALE, Route: SUBCUTANEOUS, Dose: 0, 40, 62.5, 125, 250, 500, 1000 UG FOR 9 WK (STUDY DURATION: 9 WK), Dose: 0, 40, 62.5, 125, 250, 500, 1000 UG FOR 9 WK (STUDY DURATION: 9 WK), Tumor Site: Type of Lesion: LUNG: ADENOMA", "result": "active; positive"}]}
